The test has as its system HBV. Briefly: Efficacy of and drug resistance to antiviral drugs in humanized rat model of chronic hepatitis B (HBV viral load). Type of test: in vivo. The settings on record: humanized rats with chronic hepatitis B; therapeutic dose; 1, 2, 4, 8, 12 and 24 weeks after treatment; FIG. 2. Here is the method:
The Study of Efficacy of and Drug Resistance to the Antiviral Drugs Using a Humanized Rat Model of Chronic Hepatitis B • 1. 200 humanized rats with chronic hepatitis B were randomly divided into four groups. There were no significant differences in age, gender, weight and baseline of HBV viral load among the groups. • 2. Therapeutic dose of commonly used antiviral drugs lamivudine, telbivudine, entecavir and tenofovir were administered to each of the four groups, respectively. • 3. At 1 week, 2 weeks, 4 weeks, 8 weeks, 12 weeks and 24 weeks after the treatment, the viral load of HBV in each group of rats was detected, respectively. • 4. Curves were plotted based on the viral load in each group at each time point. The difference between the groups was compared to evaluate the efficacy of and drug resistance to existing commonly used antiviral drugs.

SMILES strings stand for the structures.

Take `C=C1[C@H](CO)[C@@H](O)C[C@@H]1n1cnc2c(=O)[nH]c(N)nc21` [entecavir]: the “drop of the viral titer curves (viral load of HBV)” value was “superior to those of the telbivudine group and the lamivudine group”.
Turning to `C[C@H](Cn1cnc2c(N)ncnc21)OCP(=O)(O)O` [tenofovir], the “drop of the viral titer curves (viral load of HBV)” value is “superior to those of the telbivudine group and the lamivudine group”.

Source of the values: patent publication US20190209712A1, “HUMANIZED MURINE MODEL OF CHRONIC HEPATITIS B CONSTRUCTED USING STEM CELLS AND METHOD OF USING SAME” (Zhejiang University, priority 2017, published 2019).
